Measurements taken from publication PMC8612152, “Mapping Molecular Recognition of β1,3-1,4-Glucans by a Surface Glycan-Binding Protein from the Human Gut Symbiont Bacteroides ovatus” (Microbiology Spectrum, 2021).

Legend:
Format in all cases: binding
[1] = target: T1, BoSGBPMLG-A (Bacteroides ovatus, UniProt A0AAN3A7L1); experiment: microscale thermophoresis; conditions: 50 mM HEPES pH 7.5, 100 mM NaCl, 5 mM CaCl2, 5 mM TCEP, 0.05% Tween 20, 25°C; protein NT-647 labelled; one-site model
T1 construct: gene BACOVA_02743; residues 24-558, signal peptide and lipidation Cys excluded, N-terminal His6 tag (pHTP1-A57), expressed in E. coli BL21(DE3); NT-647 dye labelled for MST
T1 sequence (A0AAN3A7L1 24-558): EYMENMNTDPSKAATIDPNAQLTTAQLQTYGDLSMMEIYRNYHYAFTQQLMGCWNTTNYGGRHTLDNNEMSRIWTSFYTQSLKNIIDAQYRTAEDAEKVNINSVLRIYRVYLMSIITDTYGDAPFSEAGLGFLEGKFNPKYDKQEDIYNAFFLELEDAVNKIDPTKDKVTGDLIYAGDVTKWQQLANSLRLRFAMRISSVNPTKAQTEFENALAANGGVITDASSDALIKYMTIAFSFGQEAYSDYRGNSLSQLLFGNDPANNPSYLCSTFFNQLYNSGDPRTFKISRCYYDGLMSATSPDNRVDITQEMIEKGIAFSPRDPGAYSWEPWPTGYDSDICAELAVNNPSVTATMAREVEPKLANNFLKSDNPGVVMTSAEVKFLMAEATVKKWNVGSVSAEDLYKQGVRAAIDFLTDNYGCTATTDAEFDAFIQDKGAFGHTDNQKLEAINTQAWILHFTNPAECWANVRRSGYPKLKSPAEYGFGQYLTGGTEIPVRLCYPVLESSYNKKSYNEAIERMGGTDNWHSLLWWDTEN

[2] = target: T1, BoSGBPMLG-A; experiment: microscale thermophoresis; conditions: 50 mM HEPES pH 7.5, 100 mM NaCl, 5 mM CaCl2, 5 mM TCEP, 0.05% Tween 20, 25°C; protein NT-647 labelled; weak, affinity not determinable (ligand solubility)
[3] = target: T2, BoSGBPMLG-A-ZB (Bacteroides ovatus, UniProt A0AAN3A7L1); experiment: X-ray crystal structure of the complex, […] Å; conditions: co-crystallised after overnight incubation with 0.33 mM ligand, 1 mM MgCl2; pH 5.5
T2 construct: gene BACOVA_02743; residues 39-558, N-terminal His6 and Zbasic (ZB) tag (pNIC-ZB), expressed in E. coli BL21(DE3); model covers residues 40-559 as printed; 68 kDa
T2 sequence (A0AAN3A7L1 39-558): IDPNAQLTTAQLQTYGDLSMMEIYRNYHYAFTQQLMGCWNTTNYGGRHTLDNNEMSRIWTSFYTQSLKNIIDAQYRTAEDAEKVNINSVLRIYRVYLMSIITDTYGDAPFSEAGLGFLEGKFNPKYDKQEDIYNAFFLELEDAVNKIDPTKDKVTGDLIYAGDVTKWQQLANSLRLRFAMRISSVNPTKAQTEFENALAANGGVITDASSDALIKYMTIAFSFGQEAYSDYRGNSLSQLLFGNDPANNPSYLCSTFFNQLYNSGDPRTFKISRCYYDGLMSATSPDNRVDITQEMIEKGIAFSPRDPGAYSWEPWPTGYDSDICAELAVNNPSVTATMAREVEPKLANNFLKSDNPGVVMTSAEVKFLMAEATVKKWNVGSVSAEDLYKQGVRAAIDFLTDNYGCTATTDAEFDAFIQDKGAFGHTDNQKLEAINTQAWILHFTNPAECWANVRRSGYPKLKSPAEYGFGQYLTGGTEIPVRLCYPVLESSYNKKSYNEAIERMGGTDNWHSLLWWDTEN

Q: For OC[C@H]1O[C@@H](O[C@@H]2[C@@H](O)[C@H](O[C@H]3[C@H](O)[C@@H](O)[C@H](O[C@H]4[C@H](O)[C@@H](O)[C@H](O[C@@H]5[C@@H](O)[C@H](O[C@H]6[C@H](O)[C@@H](O)[C@H](O[C@H]7[C@H](O)[C@@H](O)[C@H](O[C@H]8[C@H](O)[C@@H](CO)OC(O)[C@@H]8O)O[C@@H]7CO)O[C@@H]6CO)O[C@H](CO)[C@H]5O)O[C@@H]4CO)O[C@@H]3CO)O[C@H](CO)[C@H]2O)[C@H](O)[C@@H](O)[C@@H]1O (stereo partly drawn) [barley-8], which Ka [1] is on record?
A: Its Ka is “(4.29 ± 1.15) x 10^5”.

Q: Which Ka [1] does the source give for OC[C@H]1O[C@@H](O[C@H]2[C@H](O)[C@@H](O)[C@H](O[C@@H]3[C@@H](O)[C@H](O[C@H]4[C@H](O)[C@@H](O)[C@H](O[C@H]5[C@H](O)[C@@H](O)[C@H](O[C@H]6[C@H](O)[C@@H](CO)OC(O)[C@@H]6O)O[C@@H]5CO)O[C@@H]4CO)O[C@H](CO)[C@H]3O)O[C@@H]2CO)[C@H](O)[C@@H](O)[C@@H]1O (stereo partly drawn) [barley-6] here?
A: The Ka was “(1.53 ± 0.23) x 10^5”.

Q: Which microscale thermophoresis [2] does the source give for OC[C@H]1O[C@@H](O[C@H]2[C@H](O)[C@@H](O)[C@H](O[C@H]3[C@H](O)[C@@H](O)[C@H](O[C@H]4[C@H](O)[C@@H](O)[C@H](O[C@H]5[C@H](O)[C@@H](O)[C@H](O[C@H]6[C@H](O)[C@@H](O)[C@H](O[C@H]7[C@H](O)[C@@H](O)C(O)O[C@@H]7CO)O[C@@H]6CO)O[C@@H]5CO)O[C@@H]4CO)O[C@@H]3CO)O[C@@H]2CO)[C@H](O)[C@@H](O)[C@@H]1O (stereo partly drawn) [cello-7] here?
A: The microscale thermophoresis was “For the more weakly binding cello-7, it was not possible to determine the affinity”.

Q: OC[C@H]1O[C@@H](O[C@H]2[C@H](O)[C@@H](O)[C@H](O[C@@H]3[C@@H](O)[C@H](O[C@H]4[C@H](O)[C@@H](O)[C@H](O[C@H]5[C@H](O)[C@@H](O)[C@H](O[C@@H]6[C@@H](O)[C@H](O[C@H]7[C@H](O)[C@@H](O)[C@H](O[C@H]8[C@H](O)[C@@H](O)[C@H](O[C@H]9[C@H](O)[C@@H](CO)OC(O)[C@@H]9O)O[C@@H]8CO)O[C@@H]7CO)O[C@H](CO)[C@H]6O)O[C@@H]5CO)O[C@@H]4CO)O[C@H](CO)[C@H]3O)O[C@@H]2CO)[C@H](O)[C@@H](O)[C@@H]1O (stereo partly drawn) [barley-9] was tested. Which “X-ray crystal structure of the complex, 1.43 Å” value [3] did it give?
A: Its value is “structure of BoSGBPMLG-A in complex with barley-9 (G4G3G4G4G3G4G4G3G)”.

Q: And the Ka [1]?
A: The Ka was “(4.62 ± 1.02) × 10^5”.

Q: With OC[C@H]1O[C@@H](O[C@H]2[C@H](O)[C@@H](O)[C@H](O[C@H]3[C@H](O)[C@@H](O)[C@H](O[C@@H]4[C@@H](O)[C@H](O[C@H]5[C@H](O)[C@@H](O)[C@H](O[C@H]6[C@H](O)[C@@H](O)[C@H](O[C@H]7[C@H](O)[C@@H](CO)OC(O)[C@@H]7O)O[C@@H]6CO)O[C@@H]5CO)O[C@H](CO)[C@H]4O)O[C@@H]3CO)O[C@@H]2CO)[C@H](O)[C@@H](O)[C@@H]1O (stereo partly drawn) [barley-7] as the compound, how does the Ka [1] read?
A: The Ka was “(1.06 ± 0.18) x 10^5”.
